This note sets out measurements from patent publication US11518779B2, “Inhibitors of DNMT1 as anticancer therapeutic agents” (Victoria Link Limited, priority 2018, dated 2022).

This experiment deals with DNMT1 (Homo sapiens, UniProt P26358). The experiment is described as follows: DNMT1 inhibition assay (transfer of radioactivity from [Me-3H]-SAM to hemimethylated double-stranded DNA). The class given is biochemical. The conditions noted are these: 100 nM DNMT1, 1 μM [Me-3H]-SAM, 1 μM 26 bp hemimethylated DNA substrate, 37° C., 2 hours. The text has this: Human DNMT1 C-terminal catalytic domain gene was codon-optimised for E. coli by DNA2.0. The gene was cloned into the pD431-SR vector, KanR resistance, inducible by IPTG. The codon-optimisation gave yields 5 to 10 times greater than previously published reports (e.g. Song, J., Rechkoblit, O., Bestor, T. H., and Patel, D. J., (2011) Science 331(6020): 1036-1040; and Song, 3., Teplova, M., Ishibe-Murakami, S., and Patel, D. J., (2012) Science 335(6069): 709-712). The protein construct has N-terminal His-tag, a SUMO tag, a SUMO protease cleavage site, and the DNMT-catalytic domain.
DNMT1 inhibitors were assayed by measuring the transfer of radioactivity from tritiated S-adenosylmethionine (SAM) to double-stranded DNA (Du, Q., Z. Wang, Z., and Schramm, V. L., Proc. Natl. Acad. Sci. USA, 2016, 113, 2916-2921). The double stranded DNA molecule contains exactly one hemimethylated CpG located in the centre of the sequence. The design allows one methylation occurrence per DNA molecule, preventing any processive methylation along or across the strand.
[Me-^3H] S-Adenosyl methionine ([Me-^3H]-SAM) was enzymatically synthesized using bacterial chlorinase (SaIL) enzyme (Nat Chem Biol. 2008 Jan.; 4 (1):69-74. Epub 2007 Dec. 2. Discovery and characterization of a marine bacterial SAM-dependent chlorinase. Eustáquio AS^1, Pojer F, Noel J P, Moore B S.), starting from 5′-Chloro-5′-deoxyadenosine and L-[Methyl-^3H]-Methionine (Org Biomol Chem. 2016 Jul. 14; 14(26):6189-92. doi: 10.1039/c6ob00844e. Epub 2016 Jun. 6. Chemoenzymatic synthesis and utilization of a SAM analog with an isomorphic nucleobase. Vranken C^1, Fin A, Tufar P, Hofkens J, Burkart M D, Tor Y.). A reaction (500 μL) containing 500 μCi L-[Methyl-3H]-Methionine (PerkinElmer), 0.3 mM unlabeled methionine, 1 mM 5′-Chloro-5′-deoxyadenosine, 50 mM phosphate buffer pH 7.6 and 20 μM SaIL enzyme was incubated at room temperature. After 2 hours of incubation, reaction was stopped using 50 mM sulfuric acid. The [Me-^3H]-SAM was purified using C-18 reverse-phase HPLC using a gradient (buffer A: 50 mM ammonium acetate pH 4.3; buffer B: 0.1% acetic acid and 50% acetonitrile). The fractions containing [Me-^3H]-SAM were pooled and lyophilized overnight. Purified [Me-^3H]-SAM was always kept frozen at −80° C. until further use.
The DNMT1 assays were carried to determine the IC50 with transition state analogs. The reaction (100 μL) containing 50 mM Tris-HCl pH 8.0, 100 mM KCl, 50 ug/mL BSA, 2 mM DTT, 1 μM freshly prepared [Me-3H]-SAM, 1 μM 26 bp hemimethylated DNA substrate and varying concentrations of each inhibitor ([…]), incubated at 37° C. with 100 nM DNMT1. The reaction fractions (50 μL) were taken at 2 hours. The methylated DNA was purified by using Micro Bio-spin P-30 columns (Bio-Rad). Purified samples were mixed with 10 mL of scintillation liquid (PerkinElmer), and counted for radioactivity in a Tricarb 2910 TR scintillation counter (PerkinElmer). The values obtained in the absence of DNMT1 in the reaction were used as controls. The assay data were analyzed using GraphPad Prism for IC50 calculations. The hemimethylated DNA sequences used in the assays contained 26 bp, as follows: 26a oligo 5′-[…]-3′ [SEQ ID No. 1], and 26bm oligo 5′-ACTCATACCAAT/iMe-dC/GATACCAAGGTAG-3′ [SEQ ID No. 2], where iMe-dC is a 5-methyl-C base.
IC50 values were obtained from plots of percent inhibition versus inhibitor concentration.

Chain of DNMT1 (P26358 whole entry, looked up, the tested form may be a part): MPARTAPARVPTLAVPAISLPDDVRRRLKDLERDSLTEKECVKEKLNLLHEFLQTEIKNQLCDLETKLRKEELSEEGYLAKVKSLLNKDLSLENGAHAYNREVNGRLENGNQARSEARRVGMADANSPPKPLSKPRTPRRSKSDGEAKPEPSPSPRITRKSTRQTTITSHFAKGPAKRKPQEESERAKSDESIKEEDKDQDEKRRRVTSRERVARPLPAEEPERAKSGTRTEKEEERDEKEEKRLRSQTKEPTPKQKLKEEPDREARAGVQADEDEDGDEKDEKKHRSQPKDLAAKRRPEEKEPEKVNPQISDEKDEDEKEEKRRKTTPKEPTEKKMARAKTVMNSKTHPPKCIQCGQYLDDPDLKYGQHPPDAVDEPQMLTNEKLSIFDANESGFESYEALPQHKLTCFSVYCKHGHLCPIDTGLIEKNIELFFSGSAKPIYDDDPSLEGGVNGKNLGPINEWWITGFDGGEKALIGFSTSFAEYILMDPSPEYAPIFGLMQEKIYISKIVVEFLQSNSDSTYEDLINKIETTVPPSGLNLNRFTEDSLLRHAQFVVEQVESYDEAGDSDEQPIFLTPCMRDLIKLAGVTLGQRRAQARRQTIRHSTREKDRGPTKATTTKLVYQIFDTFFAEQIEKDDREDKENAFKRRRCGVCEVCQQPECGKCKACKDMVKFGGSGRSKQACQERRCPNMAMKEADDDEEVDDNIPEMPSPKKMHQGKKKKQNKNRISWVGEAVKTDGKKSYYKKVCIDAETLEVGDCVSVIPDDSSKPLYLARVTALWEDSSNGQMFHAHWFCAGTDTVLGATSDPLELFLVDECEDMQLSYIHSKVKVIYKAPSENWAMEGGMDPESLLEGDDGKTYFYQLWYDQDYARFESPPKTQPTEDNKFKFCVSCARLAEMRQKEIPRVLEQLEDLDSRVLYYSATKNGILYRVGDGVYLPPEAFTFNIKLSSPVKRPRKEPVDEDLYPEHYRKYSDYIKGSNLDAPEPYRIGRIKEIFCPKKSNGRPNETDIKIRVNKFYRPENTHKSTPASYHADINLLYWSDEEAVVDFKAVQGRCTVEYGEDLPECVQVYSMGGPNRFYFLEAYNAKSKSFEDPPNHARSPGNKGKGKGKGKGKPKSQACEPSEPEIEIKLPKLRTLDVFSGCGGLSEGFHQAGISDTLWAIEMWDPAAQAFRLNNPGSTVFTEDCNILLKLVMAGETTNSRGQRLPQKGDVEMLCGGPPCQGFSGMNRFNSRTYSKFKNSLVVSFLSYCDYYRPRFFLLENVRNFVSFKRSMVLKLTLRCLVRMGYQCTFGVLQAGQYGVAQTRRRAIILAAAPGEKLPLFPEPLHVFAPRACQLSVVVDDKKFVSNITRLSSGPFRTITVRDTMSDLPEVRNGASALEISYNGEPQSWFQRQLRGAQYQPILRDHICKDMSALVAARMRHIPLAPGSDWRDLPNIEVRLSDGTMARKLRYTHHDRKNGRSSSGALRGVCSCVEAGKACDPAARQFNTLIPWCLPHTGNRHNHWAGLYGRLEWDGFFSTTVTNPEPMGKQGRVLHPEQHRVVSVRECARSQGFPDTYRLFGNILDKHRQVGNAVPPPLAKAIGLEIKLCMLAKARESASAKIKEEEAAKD

In general, IC50 refers to the concentration that gives 50% inhibition. As for `Nc1nc(=O)n(C2C[C@H](O)[C@@H](CO)O2)cc1CCCN(CC[C@H](N)C(=O)O)C[C@H]1O[C@@H](n2cnc3c(N)ncnc32)[C@H](O)[C@@H]1O` (stereo in doubt) [Compound 33, (S)-2-amino-4-((3-(4-amino-1-((2S,4S,5R)-4-hydroxy-5-(hydroxymethyl)tetrahydrofuran-2-yl)-2-oxo-1,2-dihydropyrimidin-5-yl)propyl)(((2R,3S,4R,5R)-5-(6-amino-9H-purin-9-yl)-3,4-dihydroxytetrahydrofuran-2-yl)methyl)amino)butanoic acid], the IC50 came to 0.8 ± 0.1 µM.

Turning to `Nc1nc(=O)n(C2C[C@H](O)[C@@H](CO)O2)cc1SCCN(CC[C@H](N)C(=O)O)C[C@H]1O[C@@H](n2cnc3c(N)ncnc32)[C@H](O)[C@@H]1O` (stereo in doubt) [Compound 42, (S)-2-amino-4-((2-((4-amino-1-((2S,4S,5R)-4-hydroxy-5-(hydroxymethyl)tetrahydrofuran-2-yl)-2-oxo-1,2-dihydropyrimidin-5-yl)thio)ethyl)(((2R,3S,4R,5R)-5-(6-amino-9H-purin-9-yl)-3,4-dihydroxytetrahydrofuran-2-yl)methyl)amino)butanoic acid], the IC50 was 15.4 ± 6.2 µM.

For `Nc1nc(=O)n(C2C[C@H](O)[C@@H](CO)O2)cc1CCN(CC[C@H](N)C(=O)O)C[C@H]1O[C@@H](n2cnc3c(N)ncnc32)[C@H](O)[C@@H]1O` (stereo in doubt) [Compound 56, (S)-2-amino-4-((2-(4-amino-1-((2S,4S,5R)-4-hydroxy-5-(hydroxymethyl)tetrahydrofuran-2-yl)-2-oxo-1,2-dihydropyrimidin-5-yl)ethyl)(((2R,3S,4R,5R)-5-(6-amino-9H-purin-9-yl)-3,4-dihydroxytetrahydrofuran-2-yl)methyl)amino)butanoic acid], the IC50 was found to be 1.9 ± 0.1 µM.

Regarding `Nc1nc(=O)n([C@H]2C[C@H](O)[C@@H](CO)O2)cc1CN(CC[C@H](N)C(=O)O)C[C@H]1O[C@@H](n2cnc3c(N)ncnc32)[C@H](O)[C@@H]1O` [Compound 7, (S)-2-amino-4-(((4-amino-1-((2R,4S,5R)-4-hydroxy-5-(hydroxymethyl)tetrahydrofuran-2-yl)-2-oxo-1,2-dihydropyrimidin-5-yl)methyl)(((2R,3S,4R,5R)-5-(6-amino-9H-purin-9-yl)-3,4-dihydroxytetrahydrofuran-2-yl)methyl)amino)butanoic acid], the IC50 came to 0.7 ± 0.1 µM.

`Nc1nc(=O)n([C@H]2C[C@H](O)[C@@H](CO)O2)cc1CNCC(CC[C@H](N)C(=O)O)C[C@H]1O[C@@H](n2cnc3c(N)ncnc32)[C@H](O)[C@@H]1O` (stereo partly drawn) [Compound 70, 2-amino-5-[[[4-amino-1-[(2R,4S,5R)-4-hydroxy-5-(hydroxymethyl)tetrahydrofuran-2-yl]-2-oxo-pyrimidin-5-yl]methylamino]methyl]-6-[(2R,3S,4R,5R)-5-(6-aminopurin-9-yl)-3,4-dihydroxy-tetrahydrofuran-2-yl]hexanoic acid]: the IC50 was found to be 2.2 ± 0.5 µM.

`NC1=NC(=O)N([C@H]2C[C@H](O)[C@@H](CO)O2)CN1CCCCCN(CC[C@H](N)C(=O)O)C[C@H]1O[C@@H](n2cnc3c(N)ncnc32)[C@H](O)[C@@H]1O` [Compound 86, (S)-2-amino-4-((5-(6-amino-3-((2R,4S,5R)-4-hydroxy-5-(hydroxymethyl)tetrahydrofuran-2-yl)-4-oxo-3,4-dihydro-1,3,5-triazin-1(2H)-yl)pentyl)(((2R,3S,4R,5R)-5-(6-amino-9H-purin-9-yl)-3,4-dihydroxytetrahydrofuran-2-yl)methyl)amino)butanoic acid]: the IC50 was determined as 6 ± 1.8 µM.
